Assay results from article PMC11745346 (Proceedings of the National Academy of Sciences of the …, 2024).

Molecular target: Kv1.1 (Homo sapiens, UniProt Q09470)
Assay: two-electrode voltage clamp in Xenopus oocytes, reference opener
Format: cell-based

Sequence of Kv1.1 (Q09470 whole entry): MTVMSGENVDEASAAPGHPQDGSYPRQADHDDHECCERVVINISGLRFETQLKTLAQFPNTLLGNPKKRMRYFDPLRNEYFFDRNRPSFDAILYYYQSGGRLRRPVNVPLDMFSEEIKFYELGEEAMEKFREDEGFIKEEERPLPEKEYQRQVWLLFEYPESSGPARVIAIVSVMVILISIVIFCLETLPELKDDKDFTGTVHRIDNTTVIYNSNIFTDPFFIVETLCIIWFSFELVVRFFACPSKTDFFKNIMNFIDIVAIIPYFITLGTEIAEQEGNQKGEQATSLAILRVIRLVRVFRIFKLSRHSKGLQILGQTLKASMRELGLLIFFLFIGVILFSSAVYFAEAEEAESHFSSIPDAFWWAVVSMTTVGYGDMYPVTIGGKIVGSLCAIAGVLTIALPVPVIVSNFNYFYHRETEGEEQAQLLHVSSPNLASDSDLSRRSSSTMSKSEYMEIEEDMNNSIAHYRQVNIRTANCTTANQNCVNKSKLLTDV

Work on `O=C(O)c1cccnc1Nc1cccc(C(F)(F)F)c1` [niflumic acid] yielded an EC50 of 347 µM.
